We go through six molecules from patent publication US20220273823A1, “THERANOSTIC CONJUGATES” (Ariel Scientific Innovations Ltd., priority 2019, published 2022).

Read-outs that look alike come from different tables or passages of the source.

One data set deals with Panc-1. The data set can be described thus: XTT cell survival assay (growth inhibition), Panc-1. In kind it is cell-based, human. Conditions: Panc-1, XTT, up to 25 μM. The protocol: (§1) The cytotoxicity of the peptide-drug conjugates was determined by measuring the mitochondrial enzyme activity, using a commercial XTT assay kit. All samples were prepared in PBS pH 7.4 contained 3% DMSO. The Cells were cultured in micro wells at a concentration 5-10×10^4 cells/well. The cells were washed and fresh cell medium containing different concentrations (up to 25 μM) of the conjugates were added and the cells were incubated for 10 minutes. The cultures were washed and then given a fresh medium and cultured for 48 hours and 72 hours. At the end of the second incubation, XTT reagent was added and the cells were re-incubated for additional 2-4 hours. During that time the absorbencies in the wells were measured with a TECAN Infinite M200 ELISA reader at 480 nm and 680 nm. The difference in the absorbencies measurements at these two wavelengths was used for calculating the percentage Growth Inhibition (GI) in test wells compared to two controls: cells that were exposed to the medium and solvent, and those which were exposed to a solvent-free medium. All the tests were done in triplicate.

Another data set relates to CHO. The data set can be described thus: XTT cell survival assay (growth inhibition), CHO. The note with it: up to 25 μM. In kind it is cell-based, Chinese hamster. As to the method: as §1
A short description of data set [1]: Spectral properties of RD, IRD-CLB and 5-CLB in PB and CM. In kind it is physicochemical. The protocol:
The spectral properties of the dye RD and its conjugates IRD-CLB and 5-CLB were measured at the concentrations (c) of 0.6 μM in 10 mM phosphate buffer pH 7.5 (PB) and cell medium pH 7.5 (CM), both containing 20% of acetonitrile (ACN) to improve solubility of the compounds.
Table 2 presents the absorption (λmaxAb) and emission (λmaxFl) maxima, extinction coefficients (ε) and fluorescence quantum yields (ΦF) of the RD dye and IRD-CLB and 5-CLB conjugates measured at 25° C. in 10 mM phosphate buffer pH 7.5 (PB) and cell medium pH 7.5 (CM).
The biodegradable ester linker (BL) in IRD-CLB and 5-CLB can be hydrolyzed to release free CLB and, accordingly, IRD turns into RD, which is accompanied by a noticeable change in the spectral properties. The time-dependent emission spectra were recorded in PB and CM (see, FIGS. 9A-D) using the excitation wavelengths 720 nm and 532 nm. The first one enabled monitoring of the decrease in the concentration of IRD-CLB and 5-CLB, while the second one—the increase in the concentration of RD and OctA-RD. Only the NIR fluorescence of IRD-CLB and 5-CLB was detected, when excited at 720 nm; and only the red fluorescence of RD and OctA-RD was detected, when excited at 532 nm.
Absorption spectra were recorded on a Jasco V-730 UV-Vis spectrophotometer and the fluorescence spectra were measured on Edinburgh FS5 spectrofluorometer. The absorption and fluorescence spectra and the quantum yields (ΦF) were measured in a 1-cm quartz cell at ˜0.5 μM dye concentrations in PB 10 mmol buffer pH 7.4 at 25° C. and cell medium pH 7.4. Excitation wavelength was 720 nm and 532 nm. The recorded fluorescence spectra were corrected using the wavelength-dependent instrument sensitivity coefficients. Absorption and emission maxima were measured with accuracy of ±0.3 nm and ±0.5 nm, respectively, and rounded. For the determination of the quantum yields, the integrated relative intensities were measured versus ICG™ in methanol as the reference (ΦF=0.043) and Cy3™ in PBS (ΦF=0.043). The absorbance values measured for the samples and the reference at the excitation wavelength were 0.04-0.06 measured in a 1-cm cell. The absolute quantum yields were calculated according to Equation 1.

Data set [2] in a line: Absorption and emission spectra of XCy, XCy-CLB and OCTA-G-XCy-CLB in PB and CM. In kind it is physicochemical. Conditions: for λmaxFl: λex 650 nm; for absorption maximum / fluorescence: in PB and CM. The protocol:
The absorption and emission spectra of XCy, XCy-CLB and OCTA-G-XCy-CLB were investigated in two different conditions, 10 mM phosphate buffer pH 7.4 containing 10% methanol (PB) and cell medium pH 7.4 containing 10% methanol (CM) (see, Table 1 below). CM was taken as a model of normal physiological conditions during drug delivery in the experiments with cells. A RPMI-1640 standard cell medium that contains 50 mL fetal bovine serum (FBS), 5 mL penicillin (10,000 U/mL), 5 mL streptomycin (10 mg/mL), 5 mL of 200 mM glutamine, and 5.3 mg/L phenol red indicator was utilized. FBS contains enzyme aspartate-aminotransferase that facilitates the ester bond cleavage.
(§2) Absorption spectra were recorded on a Jasco V-730 UV-Vis spectrophotometer and the fluorescence spectra were measured on Edinburgh FS5 spectrofluorometer. The absorption and fluorescence spectra were measured in 1-cm quartz cells at about 0.5 μM dye concentrations in PB 10 mmol buffer pH 7.4 at 25° C. and cell medium pH 7.4. Excitation wavelength was 650 nm. All the solutions were filtered in PVDF 0.45 μm filter before taking spectrum.

The nature of data set [3]: Time-dependent absorption/fluorescence CLB cleavage profiles of XCy-CLB and OCTA-G-XCy-CLB in PB and cell medium. In kind it is in vitro ADME. Conditions: read-out: CLB release half-life τ1/2 (converted). As to the method: To estimate the rate of the CLB release, the time-dependent absorption and fluorescence spectra of XCy-CLB and OCTA-G-XCy-CLB were measured in PB and CM (see, FIGS. 5A-H). With respect to time, the absorption band at about 600 nm decreases, a new band at about 680 nm increases and a fluorescence band subsequently appears at ˜708 nm (λex=650 nm).
Based of the time-dependent absorption and emission spectra, corresponding drug cleavage profiles were obtained (see, FIGS. 6A-B) and the drug release rates were quantified by half-lives (τ1/2). The cleavage profiles and half-lives obtained spectrophotometrically and spectrofluorometrically almost coincide. […] The release of CLB from OCTA-G-XCy-CLB in CM (τ1/2˜25 min) is […] faster than that in PB τ1/2 ˜2.5 h. Thus, the drug release for both XCy-CLB and OCTA-G-XCy-CLB in CM is much faster compared to PB. The obtained half-lives of the ester bond cleavage in these media were found in good agreement with some reported data. Linkage of OCTA to the conjugate accelerates the drug release by factor of 6 in PB and 1.3 in CM.
as §2

Where [4] appears, read: PB:ACN (4:1, v/v), 25° C., c=0.6 μM.
Setting [5] is: CM: cell medium pH 7.4 containing 10% methanol.
Setting [6] is: PB: 10 mM phosphate buffer pH 7.4 containing 10% methanol.

Consider `O=C(O)CCCc1ccc(N(CCCl)CCCl)cc1` [CLB, chlorambucil], for which the “Growth Inhibition (GI) / toxicity” value in the data set with Panc-1 is “neither free OCT, nor free CLB exhibited detectible toxicity”; in the data set on CHO, “neither free OCT, nor free CLB exhibited detectible toxicity”.

`C[N+]1=C(C=CC2=C(OC(=O)CCCc3ccc(N(CCCl)CCCl)cc3)C(=CC=C3N(CCCCCC(=O)O)c4ccccc4C3(C)C)CCC2)C(C)(C)c2ccccc21` [IRD-CLB, 2-(−2-(−2-((4-(4-(bis(2-chloroethyl)amino)phenyl)butanoyl)oxy)-3-(2-(−1-(5-carboxypentyl)-3,3-dimethylindolin-2-ylidene)ethylidene)cyclohex-1-en-1-yl)vinyl)-1,3,3-trimethyl-3H-indol-1-ium]: in data set [1] (CM:ACN (4:1, v/v), 25° C.), the ΦF was found to be 6.3%, the λmaxAb is on record as 785 nm and the λmaxFl was 805 nm. Besides, in data set [1] (PB and CM), the “emission when excited at 532 nm” value is “no detectable emission”. For the same molecule, in data set [1] (PB:ACN (4:1, v/v), 25° C.), the ΦF came out at 2.9%, the ε is given as 160,000 M^−1cm^−1 and the λmaxFl turned out to be 795 nm. The λmaxAb in data set [1] (setting [4]) came out at 775 nm.

Consider `CN1C(=CC=C2CCCC(=CC=C3N(CCCCCC(=O)O)c4ccccc4C3(C)C)C2=O)C(C)(C)c2ccccc21` [RD, 6-(−3,3-dimethyl-2-(−2-(−2-oxo-3-(2-(−1,3,3-trimethylindolin-2-ylidene)ethylidene)cyclohexylidene)ethylidene)indolin-1-yl)hexanoic acid], for which, in data set [1] (CM:ACN (4:1, v/v), 25° C.), the ΦF came to 2.6%, the λmaxAb came to 526 nm and the λmaxFl was 626 nm. In data set [1] (PB:ACN (4:1, v/v), 25° C.), this molecule had a ΦF of 9.9% and a λmaxFl of 643 nm. In data set [1] (setting [4]), the λmaxAb turned out to be 555 nm.

For `CC1(C)C(/C=C/C2=C3Oc4cc(O)ccc4C=C3CCC2)=[N+](CCCCCC(=O)O)c2ccccc21` [XCy, (E)-1-(5-carboxypentyl)-2-(2-(6-hydroxy-2,3-dihydro-1H-xanthen-4-yl)vinyl)-3,3-dimethyl-3H-indol-1-ium], in data set [2] (setting [5]), the λmaxAbs was 679 nm and the λmaxFl is given as 713 nm. Further, in data set [2] (setting [6]), the λmaxAbs is recorded as 681 nm and the λmaxFl amounted to 708 nm. In data set [2], the absorption maximum result is reported as “about 680 nm” and the fluorescence entry is listed as “around 710 nm”.

With `CC1(C)C(/C=C/C2=C3Oc4cc(OC(=O)CCCc5ccc(N(CCCl)CCCl)cc5)ccc4C=C3CCC2)=[N+](CCCCCC(=O)O)c2ccccc21` [XCy-CLB, (E)-2-(2-(6-((4-(4-(bis(2-chloroethyl)amino)phenyl)butanoyl)oxy)-2,3-dihydro-1H-xanthen-4-yl)vinyl)-1-(5-carboxypentyl)-3,3-dimethyl-3H-indol-1-ium], in data set [2] (setting [5]), the λmaxAbs stood at 602 nm and the λmaxFl entry is “No fl”. For the same molecule, in data set [2] (setting [6]), the λmaxAbs is listed as 598 nm and the λmaxFl result is recorded as “No fl”. Besides, in data set [2], the absorption maximum is reported as ~600 nm and the fluorescence entry was “not detectable”. In addition, in data set [3] (bovine, in CM (cell medium pH 7.4, esterase present)), the half-life is ~0.667 h. The half-life in data set [3] (phosphate buffer, in PB pH 7.4) is ~8 h.

As to octreotide amide, the “Growth Inhibition (GI) / toxicity” value was “neither free OCT, nor free CLB exhibited detectible toxicity” in the data set with Panc-1 and “neither free OCT, nor free CLB exhibited detectible toxicity” in the data set with CHO.
